How the values were obtained:
Cannabinoid receptor 2 [1] = target: T1, Cannabinoid receptor 2 (Homo sapiens, UniProt P34972); experiment: Displacement of [3H]CP55940 from human CB2 receptor
Cannabinoid receptor 1 [2] = target: T2, Cannabinoid receptor 1 (Homo sapiens, UniProt P21554); experiment: Displacement of [3H]CP55940 from human CB1 receptor
[3] = target: Cholinesterase (Homo sapiens) (UniProt P06276); experiment: Inhibition of human BChE at 10 uM relative to control
Cannabinoid receptor 1 [4] = target: T2, Cannabinoid receptor 1; experiment: Binding affinity to human CB1 receptor stably expressing CHO cells assessed as inhibition constant by radioligand binding assay; type: cell-based
Cannabinoid receptor 2 [5] = target: T1, Cannabinoid receptor 2; experiment: Binding affinity to human CB2 receptor stably expressed in HEK cells assessed as inhibition constant by […]; type: cell-based
Cannabinoid receptor 1 [6] = target: T2, Cannabinoid receptor 1; experiment: Displacement of [3H]CP55940 from human CB1 receptor stably expressed in CHO cells at 10 uM by radioligand binding assay relative to control; type: cell-based
Cannabinoid receptor 1 [7] = target: Cannabinoid receptor 1 (Rattus norvegicus, UniProt P20272); experiment: Displacement of [3H]CP55940 from rat brain membrane CB1 receptor assessed as inhibition constant incubated for 1 hr by liquid scintillation counting method; type: cell membranes
Chain of Cannabinoid receptor 1 (Rattus norvegicus, UniProt P20272) (P20272 whole entry): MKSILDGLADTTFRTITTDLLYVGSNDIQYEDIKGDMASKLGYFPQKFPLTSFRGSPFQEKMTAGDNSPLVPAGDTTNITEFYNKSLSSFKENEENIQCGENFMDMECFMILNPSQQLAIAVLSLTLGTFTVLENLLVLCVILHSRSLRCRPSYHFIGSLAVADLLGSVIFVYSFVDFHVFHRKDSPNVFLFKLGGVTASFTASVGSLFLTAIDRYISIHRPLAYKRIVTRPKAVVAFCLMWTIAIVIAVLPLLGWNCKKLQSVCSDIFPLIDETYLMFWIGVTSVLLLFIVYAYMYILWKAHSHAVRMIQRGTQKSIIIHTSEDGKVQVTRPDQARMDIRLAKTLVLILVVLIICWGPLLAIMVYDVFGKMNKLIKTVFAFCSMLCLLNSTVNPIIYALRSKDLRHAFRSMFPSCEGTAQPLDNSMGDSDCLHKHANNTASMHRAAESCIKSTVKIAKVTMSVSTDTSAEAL

Cannabinoid receptor 2 [8] = target: T1, Cannabinoid receptor 2; experiment: Displacement of [3H]CP55940 from human CB2 receptor expressed in HEK293 cell membrane assessed as inhibition constant incubated for 1 hr by liquid scintillation counting method; type: cell membranes
Cannabinoid receptor 2 [9] = target: T1, Cannabinoid receptor 2; experiment: Binding affinity to CB2 receptor (unknown origin) assessed as inhibition constant
Cannabinoid receptor 1 [10] = target: T2, Cannabinoid receptor 1; experiment: Binding affinity to CB1 receptor (unknown origin) assessed as inhibition constant
Cannabinoid receptor 2 [11] = target: T1, Cannabinoid receptor 2; experiment: Displacement of [3H]CP55940 from CB2 receptor (unknown origin) expressed in HEK cell membrane measured after 90 mins by competitive binding assay; type: cell membranes

T2 sequence (P21554 whole entry): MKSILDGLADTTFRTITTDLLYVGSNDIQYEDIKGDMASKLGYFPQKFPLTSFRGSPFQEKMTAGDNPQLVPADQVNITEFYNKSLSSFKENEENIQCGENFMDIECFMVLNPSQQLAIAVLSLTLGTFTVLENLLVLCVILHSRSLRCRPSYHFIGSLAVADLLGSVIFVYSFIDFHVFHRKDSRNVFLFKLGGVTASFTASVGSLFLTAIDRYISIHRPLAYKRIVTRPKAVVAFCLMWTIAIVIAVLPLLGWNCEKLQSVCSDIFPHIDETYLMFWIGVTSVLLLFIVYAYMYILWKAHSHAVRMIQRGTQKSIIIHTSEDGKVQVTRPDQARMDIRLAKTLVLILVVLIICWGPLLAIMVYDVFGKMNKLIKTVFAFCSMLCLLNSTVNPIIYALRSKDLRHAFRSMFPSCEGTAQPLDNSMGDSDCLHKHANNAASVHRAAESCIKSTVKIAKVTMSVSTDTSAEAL
T1 sequence (P34972 whole entry): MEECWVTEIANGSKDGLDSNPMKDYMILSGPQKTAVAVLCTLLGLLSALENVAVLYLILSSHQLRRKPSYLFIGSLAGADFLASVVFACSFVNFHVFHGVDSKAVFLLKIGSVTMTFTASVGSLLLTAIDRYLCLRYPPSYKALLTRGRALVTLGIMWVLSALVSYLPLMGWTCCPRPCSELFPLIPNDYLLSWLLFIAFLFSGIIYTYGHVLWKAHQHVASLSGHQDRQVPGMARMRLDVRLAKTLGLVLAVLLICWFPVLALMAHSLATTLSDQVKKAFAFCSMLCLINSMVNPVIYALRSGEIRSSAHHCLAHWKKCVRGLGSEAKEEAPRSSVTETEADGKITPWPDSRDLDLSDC
Chain of Cholinesterase (Homo sapiens) (P06276 whole entry): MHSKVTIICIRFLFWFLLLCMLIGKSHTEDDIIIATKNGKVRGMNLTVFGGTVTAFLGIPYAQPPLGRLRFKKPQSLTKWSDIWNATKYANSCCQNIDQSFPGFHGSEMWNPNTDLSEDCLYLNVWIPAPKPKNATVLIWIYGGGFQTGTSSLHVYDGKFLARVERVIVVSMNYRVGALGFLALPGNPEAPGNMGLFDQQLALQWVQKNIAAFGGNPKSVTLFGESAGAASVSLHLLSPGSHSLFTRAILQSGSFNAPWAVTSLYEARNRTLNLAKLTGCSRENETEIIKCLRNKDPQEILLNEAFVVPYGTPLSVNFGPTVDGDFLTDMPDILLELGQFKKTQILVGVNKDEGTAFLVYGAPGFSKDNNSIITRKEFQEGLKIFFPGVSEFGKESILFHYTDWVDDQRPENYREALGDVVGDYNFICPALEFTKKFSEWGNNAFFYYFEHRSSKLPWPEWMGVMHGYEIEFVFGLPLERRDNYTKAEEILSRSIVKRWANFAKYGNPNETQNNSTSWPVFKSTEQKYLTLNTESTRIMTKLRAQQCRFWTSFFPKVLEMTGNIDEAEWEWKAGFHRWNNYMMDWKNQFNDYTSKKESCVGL

**Q.** For `O=C(c1ccc2ccccc2c1)c1cn2c3c(cccc13)OCC2CN1CCOCC1` (stereo not drawn), which Ki (Cannabinoid receptor 2 [1]) is on record?
**A.** The Ki was 3.3 nM.

**Q.** What about the Ki (Cannabinoid receptor 1 [2]) of the same compound?
**A.** Its Ki is 62.3 nM.

**Q.** With `CCN(CC)C(=O)c1ccc2c(c1)nc(Nc1ccc(Oc3ccccc3)cc1)n2CCC(C)C` as the compound, how does the inhibition [3] read?
**A.** Its inhibition is 2%.

**Q.** With `CCOc1ccc(Cc2nc3cc(C(=O)N(CC)CC)ccc3n2CCC(C)C)cc1` as the compound, how does the Ki (Cannabinoid receptor 1 [4]) read?
**A.** The Ki was > 5000 nM.

**Q.** Which Ki (Cannabinoid receptor 2 [5]) does the source give for `CCOc1ccc(Nc2nc3cc(C(=O)N(CC)CC)ccc3n2CCC(C)C)cc1` here?
**A.** Its Ki is 1.9 nM.

**Q.** And the Activity (Cannabinoid receptor 1 [6])?
**A.** The Activity was 13%.

**Q.** Which Ki (Cannabinoid receptor 1 [7]) does the source give for `CCC(C)(C)c1ccc2c(c1)OC(C)(C)C1CC=C(C)CC21` (stereo not drawn) here?
**A.** The Ki was 2290 nM.

**Q.** What about the Ki (Cannabinoid receptor 2 [8]) of the same compound?
**A.** The Ki was 14 nM.

**Q.** How did the Ki (Cannabinoid receptor 2 [9]) turn out when `CCCn1c(C)c(C(=O)c2ccc3ccccc3c2)c2ccccc21` was run?
**A.** The Ki was 13.8 nM.

**Q.** What about the Ki (Cannabinoid receptor 1 [10]) of the same compound?
**A.** Its Ki is 383 nM.

**Q.** With `CCCC(C)(C)c1ccc2c(c1)OC(C)(C)C1CC=C(C)CC21` (stereo not drawn) as the compound, how does the Ki (Cannabinoid receptor 1 [7]) read?
**A.** Its Ki is 677 nM.

**Q.** What about the Ki (Cannabinoid receptor 2 [8]) of the same compound?
**A.** Its Ki is 3.4 nM.

**Q.** Which Ki (Cannabinoid receptor 2 [11]) does the source give for `CN1CCCCC1Cn1cc(C(=O)c2cc([N+](=O)[O-])ccc2I)c2ccccc21` (stereo not drawn) here?
**A.** The Ki was 7 nM.

— ChEMBL document CHEMBL5230132, “Cannabinoid Receptor Subtype 2 (CB2R) in a Multitarget Approach: Perspective of an Innovative Strategy in Cancer and Neurodegeneration” (J Med Chem, 2020)
